Experiments:
B16-F10 melanoma [1] = test: Inhibition of tumor metastasis to lung by intravenous oily emulsions (Example 8); type: in vivo, male C57BL/6 mice; settings: oily emulsion i.v., 9 times every three days
Experimental: Male C57BL/6 mice (6 weeks old) were given 4×10^5 B16-F10 melanoma cells in 0.05 ml of serum-free RPMI 1640 medium in the foot pad of the left hind leg. […] The tumor-bearing legs were cut on day 27 and the mice were sacrificed on day 41. The number of metastatic nodules formed in the lung was counted for each mouse. 10 Animals were used per each group. % Inhibition of tumor metastasis to lung was calculated on the basis of the following formula.
% Inhibition of tumor metastasis to lung=(1-M/M0)×100

B16-F10 melanoma cells = test: L-PHA-sensitivity of cultured tumor cells (Example 4); type: cell-based; settings: Mus musculus, 10 μl of 50 μg/ml test compound in DMSO added on day 1 to 2 ml medium, L-PHA 50 μl of 50 μg/ml on day 2, count day 4, control 42.0, read-out: Growth inhibition by L-PHA
Experimental: Tumor cell culture: B16-F10 melanoma cells were incubated in RPMI 1640 medium containing 10% fetal bovine serum and antibiotics at 37° C.
Test method: B16-F10 cells (5×10^4) in 2 ml of the medium were seeded onto a plastic dish and incubation was started. On day 1, 10 μl of dimethylsulfoxide (control group) or a test compound suspended in 10 μl of dimethylsulfoxide at a concentration of 50 μg/ml (test group) was added. On day 2, 50 μl each of water was added to a half of each of the control group and the test group, and 50 μl of 50 μg/ml L-PHA solution in water was added to a remaining half. On day 4, the number of cells was counted in L-PHA-treated and untreated groups and % growth inhibition by L-PHA was calculated according to the following formula:
% Growth Inhibition=(1-N/N0)×100
in which N denotes a number of cells in the presence of L-PHA and N0 denotes a number of cells in the absence thereof.

B16-F10 melanoma [2] = test: Inhibition of lung metastasis of B16-F10 melanoma in mice, intraperitoneal olive oil solution (Example 3); type: in vivo, male C57BL/6 mice
Experimental: (§1) Experimental animal: male C57BL/6 mice (6 weeks old)
(§2) Tumor cell line: B16-F10 melanoma
Compounds B, D, E and F were tested for the inhibitory effect on tumor metastasis using the same experimental animal and tumor cell line as in Example 1. Test method: Mice were given 4×10^5 B16-F10 melanoma cells in 0.05 ml of serum-free RPMI 1640 medium in the foot pad of the left hind leg. A solution of Compounds B, D, E or F (0.1 or 0.2 mg) in 0.2 ml of olive oil was administered intraperitoneally every other day from day 1 to day 27 after inoculation of the melanoma cells. During this period, the size of the inoculated tumors was observed macroscopically. On day 28, the tumor-bearing legs were cut from the mice and on day 42 the mice were sacrificed. The number of metastatic nodules formed on the lung surface was counted for each mouse. 10 Animals were used per each group except for control group wherein 20 animals were used.

B16-F10 melanoma [3] = test: Inhibition of lung metastasis of B16-F10 melanoma in mice, intraperitoneal suspension (Examples 1 and 2); type: in vivo, male C57BL/6 mice; settings: for Number of metastatic nodules mean ± standard error / Inhibition of metastasis: day 1 to 27, day 42; for Number of metastatic nodules mean ± standard error: lung surface; for Inhibition of metastasis: lung
Experimental: as §1, §2
Test method: Mice were given 4×10^5 B16-F10 melanoma cells in 0.05 ml of serum-free RPMI 1640 medium in the foot pad of the left hind leg. […] During this period, the size of the inoculated tumor was observed macroscopically. On day 28, tumor-bearing legs were cut from the mice and on day 42 the mice were sacrificed. The number of metastatic nodules formed on the lung surface was counted for each mouse. 10 Animals were used per each group
Compounds G and H were tested for the inhibitory effect on tumor metastasis.

Row | SMILES | Inhibition of tumor metastasis to lung (B16-F10 melanoma [1]; 0.8 mg/kg) [%] | inhibition at 50 µg/mL (stock) (B16-F10 melanoma cells) [%] | Growth of the inoculated tumors (in words) (B16-F10 melanoma [2]; 10 mg/Kg i.p., compared with Control) | Number of metastatic nodules mean ± standard error (B16-F10 melanoma [2]; 10 mg/kg i.p. in olive oil every other day, day 1 to 27, lung surface, day 42) | Inhibition of metastasis (B16-F10 melanoma [2]; 10 mg/kg i.p. in olive oil every other day, day 1 to 27, lung, day 42) [%] | Number of metastatic nodules mean ± standard error (B16-F10 melanoma [3]; 5 mg/kg i.p. every other day) | Inhibition of metastasis (B16-F10 melanoma [3]; 5 mg/kg i.p. every other day) [%] | Number of metastatic nodules mean ± standard error (B16-F10 melanoma [3]; 10 mg/kg i.p. every other day) | Inhibition of metastasis (B16-F10 melanoma [3]; 10 mg/kg i.p. every other day) [%] | Inhibition of tumor metastasis to lung (B16-F10 melanoma [1]; 0.3 mg/kg) [%] | Inhibition of tumor metastasis to lung (B16-F10 melanoma [1]; 2.0 mg/kg) [%] | Inhibitory effect on tumor metastasis (in words) (B16-F10 melanoma [3]; Example 2, i.p. suspension, same method as Example 1)
1 | CC(C)=CCC/C(C)=C/CC/C(C)=C/CC/C(C)=C/CC/C(C)=C/CC/C(C)=C/CC/C(C)=C/CC/C(C)=C/CC/C(C)=C/CCC(C)CCO (centres unmarked) [Compound B] | 54 | 36.6 | about the same as that of Control | 11.7 ± 6.2 | 63 |  |  |  |  |  |  | 
2 | CC(C)=CCC/C(C)=C/CC/C(C)=C/CC/C(C)=C/CC/C(C)=C/CC/C(C)=C/CC/C(C)=C/CC/C(C)=C/CC/C(C)=C/CCC(C)CCOP(=O)(O)O (centres unmarked) [Compound C] | 78 | 32.7 |  |  |  | 1.2 ± 0.8 | 94 | 0 | 100 | 79 | 85 | 
3 | CC(C)=CCC/C(C)=C/CC/C(C)=C/CC/C(C)=C/CC/C(C)=C/CC/C(C)=C/CC/C(C)=C/CC/C(C)=C/CC/C(C)=C/CCC(C)CCOP(=O)(O)O (centres unmarked) [Compound G] |  |  |  |  |  |  |  |  |  |  |  | essentially the same as that of Compound C
